Consider eleven compounds from patent publication US9895443B2, “Multi-tailed lipids and uses thereof” (Massachusetts Institute of Technology, priority 2013, dated 2018).

Data set [1] in a line: 6-p-toluidinyl-naphthalene-2-sulfonate (TNS) assay, apparent pKa of the LNPs. Type of data set: physicochemical. The settings on record: TNS fluorescence titration pH 2.5 to 8.5, fully formulated LNP. The method, then:
6-p-toluidinyl-naphthalene-2-sulfonate (TNS) Assay
A series of buffers with pH ranging between 2.5 and 8.5 were prepared by adjusting the pH of a solution containing 10 mM citrate, 10 mM phosphate, 10 mM borate, and 150 mM NaCl with 1N HCl. 90 μL of each buffer solution was added to a 96-well plate. A 300 μM stock solution of TNS was prepared in DMSO and 2 μL of this solution was added to the buffer solutions in the 96 well plate. After formulation, 10 μL of an LNP solution (prepared without siRNA) was added to the above mixture such that the synthesized lipid concentration (not co-lipids) in the final mixture was […]. The fluorescence of the resulting solution was obtained on a Tecan Safire 2 Microplate reader using an excitation wavelength of 325 nm and an emission wavelength of 435 nm. The fluorescence signal was plotted against pH and fitted using a three-parameter logistic equation (GraphPad Prism v.5.0a, GraphPad Software, San Diego Calif. USA). The pH value at which half of the maximum fluorescence is reached was reported as the apparent pKa of the LNPs.

The subject of data set [2] is HeLa cells stably modified to constitutively express both firefly and Renilla luciferases. The data set is described as follows: In vitro transfection: firefly luciferase silencing by LNP-siRNA (Dual-Glo). Type of data set: cell-based. As to conditions: LNPs with anti-firefly luciferase siRNA, serum containing media, 24 hours. The method, then:
Lipid nanoparticles were formulated by mixing an equal volume of an ethanolic solution of a lipid of the invention (e.g., a compound of the invention) and an […] at pH 3 to give a 5:1 synthesized lipid:siRNA ratio. The resulting solution was then diluted in an equal volume of 1× phosphate-buffered saline (PBS). The ethanolic lipid solution contained a mixture of synthesized lipids, cholesterol (Sigma Aldrich), 1,2-distearoyl-sn-glycero-3-phosphocholine (DSPC, Avanti Polar Lipids, Alabaster, Ala.) and mPEG2000-DMG (MW 2660, Alnylam Pharmaceuticals, Cambridge, Mass.) at a molar ratio of 50:38.5:10:1.5 in 200-proof ethanol. For all studies, the ethanolic lipid and siRNA solutions were hand mixed via pipette. The LNPs for in vivo use were also dialyzed for 75 minutes against 1×PBS in 3500 MW cut-off (MWCO) cassettes (Pierce/Thermo Scientific, Rockford, Ill.) prior to use.
In vitro transfection was performed on HeLa cells stably modified to constitutively express both firefly and Renilla luciferases. Cells were maintained at 37° C. in a 5% CO2 atmosphere in high glucose Dulbelco modified Eagles medium without phenol red (Invitrogen, Carlsbad, Calif.) supplemented with 10% fetal bovine serum (FBS, Invitrogen). Prior to transfection, 15,000 cells were seeded in white 96-well plates and allowed to attach overnight. On the day of transfection, the media was replaced with 90 μL of fresh media. LNPs were formulated at a concentration of 10 ng/μL and diluted with 1×PBS to obtain the desired concentration. For example, to achieve a transfection of 25 ng of siRNA per well, the 10 ng/μL stock was diluted 1:4 to give 2.5 ng/μL, and 10 μL of this solution was added to the cells in 90 μL of media. Lipofectamine (RNAiMAX) was used according to the manufacturer's instructions as a positive control. Relative firefly luciferase silencing was assessed approximately 24 hours after LNP addition using a Dual-Glo luciferase assay kit (Promega, Madison, Wis.). The firefly luciferase values were normalized to the Renilla luciferase values in order to correct for potential toxicity and/or off-target effects. All experiments were carried out in sextuplicates.

In data set [3] the test system is HeLa cells. Nature of the data set: Cellular uptake of LNPs with Alexa Fluor 647 siRNA (flow cytometry). As to conditions: two hours incubation, serum containing media. The format is cell-based. On the procedure:
(§1) Extracellular/Intracellular Fluorescence Resonance Energy Transfer (FRET) Assays and Cellular Uptake
(§2) LNPs containing an equimolar mixture of siRNAs labeled with Alexa Fluor® 594 and Alexa Fluor® 647 were diluted to 10 ng siRNA/μL with 1×PBS and added to a black 96-well plate pre-plated with 20,000 HeLa cells at 37° C. Control wells contained LNPs with 1% Triton-X. To measure the FRET, the samples were excited at 540 nm, and the fluorescence intensity was read at 690 and 620 nm using a Tecan Safire 2 Microplate reader at 37° C. FRET was determined as the ratio of the fluorescence intensities at 690/620 nm. FRET signals for all LNPs were normalized to that of the control wells. For extracellular FRET experiments, an identical experiment was carried out without cells, and the FRET data obtained were similar. […] The trypsined cells were then neutralized with 120 μL of quenching media (25% cell culture media in 1×PBS) and transferred to a 96-well v-bottom plate and analyzed via flow cytometry. For each sample, 10,000 events were monitored and evaluated by a BD LSR II HTS flow cytometer (BD Bioscience). […] For cell uptake studies, LNPs formulated with just Alexa Fluor® 647 were analyzed using settings for the Alexa Fluor® 647 channel: exciation via a 633 nm (red, HeNe) laser and emission via a 660/20 nm filter.
In general terms: A flow cytometer gives signals particle by particle.

Data set [4] concerns HeLa cells. Nature of the data set: Intracellular FRET with FRET-labeled siRNA probes (flow cytometry). The format is cell-based. The settings on record: early time point after transfection. The method, then: as §1, §2
In data set [5] the test system is Human red blood cells (RBCs). Nature of the data set: Hemolysis assay. The format is cell-based. As to conditions: endosomal pH 5.5, 37 C, one hour. On the procedure:
Human red blood cells (RBCs, Innovative Research) were washed twice with 1×PBS and diluted in either 1×PBS or citrate buffer saline at pH 5.5 (CBS, 20 mM citrate buffer, 130 mM NaCl) to a 4% v/v RBC solution. In a v-bottom, 96-well plate, 100 μL of blank LNPs formulated at an equivalent concentration of 23.75 ng siRNA/μL (no siRNA was used) were added to 100 μL of the 4% v/v RBC solution in either PBS or CBS and heated to 37° C. for one hour. After cooling, the plate was centrifuged at 4° C. at 1000×g for 5 minutes. 100 μL of the supernatant was transferred into a clear 96-well assay plate and the UV absorption was read 540 nm. Positive and negative control experiments were carried out with 0.1% Triton-X (100%) and buffer alone, respectively.

The subject of data set [6] is HeLa cells. The data set is described as follows: Confocal microscopy of LNPs with FRET-labeled siRNA probes. The settings on record: 50 ng FRET-labeled probes, one hour. Type of data set: cell-based. The method, then: HeLa cells were seeded at 1.5×10^4 cells per well in black (clear bottom) 96-well plates (Greiner Bio-one) and incubated for 24 hours prior to transfection. The cells were then transfected with the inventive LNPs containing 50 ng of FRET-labeled probes for one hour. The cells were washed, fixed, and counterstained in PBS containing Hoechst (2 μg/mL) for nuclei identification. The cells were then imaged using an automated spinning disk confocal microscope (OPERA, Perkin Elmer) with a 40× objective. The exposure rates were maintained constant for individual fluorophores across the 96-well plate. The images were acquired from the Acapella software with a 20 μm scale bar.

A short description of data set [7]: Dynamic light scattering, particle size. The format is physicochemical. The method, then: After formulation, the LNPs-siRNA were diluted with 1×PBS to a final siRNA concentration of 2 μg/mL. The average particle size was measured via dynamic light scattering on a Malvern Zetasizer Nano ZS (Malvern Instruments, Worcestershire, UK). All experiments were carried out in triplicates.

Entries after “also recorded” stand apart in the source; their conditions may differ.

Regarding `CCCCCCCCCCSCC(COC(=O)CCN(CCC(=O)OCC(CSCCCCCCCCCC)SCCCCCCCCCC)C1CCN(Cc2ccccc2)C1)SCCCCCCCCCC` (centres unmarked) [I-30], the “LNP pKa” value in data set [1] is “low LNP pKa values”. In addition, the “in vitro gene silencing (firefly luciferase, Luc/Ren)” value in data set [2] is “poor gene silencing”.
On to `CCCCCCCCCCSCC(COC(=O)CCN(CCC(=O)OCC(CSCCCCCCCCCC)SCCCCCCCCCC)CCN1CCS(=O)(=O)CC1)SCCCCCCCCCC` (centres unmarked) [I-28], for which, in data set [3], the cellular uptake result is listed as “relatively high uptake”. For the same compound, the “LNP pKa” value in data set [1] is listed as “low LNP pKa values”. The “intracellular FRET signal (uptake of intact LNPs)” value in data set [4] is given as “did not give an intracellular FRET signal”. The “in vitro gene silencing (firefly luciferase, Luc/Ren)” value in data set [2] was “limited gene silencing performance”.
As for `CCCCCCCCCCSCC(COC(=O)CCN(CCCN1CCCN(C)CC1)CCC(=O)OCC(CSCCCCCCCCCC)SCCCCCCCCCC)SCCCCCCCCCC` (centres unmarked) [I-21], the “LNP pKa” value in data set [1] is “low pKa values”. Besides, the “in vitro gene silencing (firefly luciferase, Luc/Ren)” value in data set [2] is “poor gene silencing”; in data set [2] (listed as 21), “low gene silencing”.
For `CCCCCCCCCCSCC(COC(=O)CCN(CCC(=O)OCC(CSCCCCCCCCCC)SCCCCCCCCCC)CCN(C)C)SCCCCCCCCCC` (centres unmarked) [I-3], the “LNP-mediated hemolysis of RBCs at pH 5.5” value in data set [5] is “hemolytic”. The “intracellular location of LNPs” value in data set [6] was “located near the cell membrane and inside endocytic vesicles; also recorded: reside in the endocytic vesicles”.
On to `CCCCCCCCCCSCC(COC(=O)CCN(CCCn1ccnc1)CCC(=O)OCC(CSCCCCCCCCCC)SCCCCCCCCCC)SCCCCCCCCCC` (centres unmarked) [I-20], for which, in data set [1], the “LNP pKa” value was “low LNP pKa values”. Moreover, the “in vitro gene silencing (firefly luciferase, Luc/Ren)” value in data set [2] is on record as “poor gene silencing”.
For `CCCCCCCCCCSCC(COC(=O)CCN(CCCN(CC)CC)CCC(=O)OCC(CSCCCCCCCCCC)SCCCCCCCCCC)SCCCCCCCCCC` (centres unmarked) [I-2], in data set [5], the “LNP-mediated hemolysis of RBCs at pH 5.5” value is on record as “hemolytic”. For the same compound, in data set [6], the “intracellular location of LNPs” value was “located near the cell membrane and inside endocytic vesicles; also recorded: reside in the endocytic vesicles”.
Consider `CCCCCCCCCCSCC(COC(=O)CCN(CCC(=O)OCC(CSCCCCCCCCCC)SCCCCCCCCCC)C1CCN(Cc2ccccc2)CC1)SCCCCCCCCCC` (centres unmarked) [I-29], for which, in data set [1], the “LNP pKa” value is “low LNP pKa values”. Further, the “in vitro gene silencing (firefly luciferase, Luc/Ren)” value in data set [2] is “poor gene silencing”.
Consider `CCCCCCCCCCSCC(COC(=O)CCN(CCC(=O)OCC(CSCCCCCCCCCC)SCCCCCCCCCC)CCN(C(C)C)C(C)C)SCCCCCCCCCC` (centres unmarked) [I-4], for which the cellular uptake result in data set [3] was “relatively high uptake”. The “LNP pKa” value in data set [1] is “low pKa values”. Also, the “intracellular FRET signal (uptake of intact LNPs)” value in data set [4] is on record as “did not give an intracellular FRET signal”. The “in vitro gene silencing (firefly luciferase, Luc/Ren)” value is “poor gene silencing; also recorded: limited gene silencing performance” in data set [2] and “low gene silencing” in data set [2] (listed as 4).
On to `CCCCCCCCCCSCC(COC(=O)CCN(CCCN(CCCC)CCCC)CCC(=O)OCC(CSCCCCCCCCCC)SCCCCCCCCCC)SCCCCCCCCCC` (centres unmarked) [I-6], for which the “LNP pKa” value in data set [1] is given as “low pKa values”. Moreover, the “in vitro gene silencing (firefly luciferase, Luc/Ren)” value in data set [2] is “poor gene silencing”; in data set [2] (listed as 6) it was “low gene silencing”.
On to `CCCCCCCCCCSCC(COC(=O)CCN(CCC(=O)OCC(CSCCCCCCCCCC)SCCCCCCCCCC)CCc1ccccn1)SCCCCCCCCCC` (centres unmarked) [I-13], for which, in data set [1], the “LNP pKa” value is recorded as “low LNP pKa values”. Also, the “in vitro gene silencing (firefly luciferase, Luc/Ren)” value in data set [2] was “poor gene silencing”.
Take `CCCCCCCCCCSCC(COC(=O)CCN(CCC(=O)OCC(CSCCCCCCCCCC)SCCCCCCCCCC)CCC1CCCC1)SCCCCCCCCCC` (centres unmarked) [I-18]: in data set [2], the “in vitro gene silencing (firefly luciferase, Luc/Ren)” value is listed as “poor gene silencing; also recorded: unable to silence the target gene”. Further, the “particle size / nanoparticle formation” value in data set [7] is on record as “able to form nanoparticles”.
